Source: paper PMC10218596 (International Journal of Molecular Sciences, 2023)

How the values were obtained:
hα6/α3β4 = molecular target: T1, hα6/α3β4 (Homo sapiens, UniProt P30926+P32297+Q15825); assay: Electrophysiological assay, ACh concentration-response (Xenopus oocytes); format: cell-based; conditions: ACh on hα6/α3β4
T1 construct: splicing the N-terminal extracellular domain of the α6 subunit with the α3 subunit; host or cells: Xenopus laevis oocytes injected with cRNA (1:1)

h[α6I56V/α3]β4 = h[α6I56V/α3]β4 (Homo sapiens, UniProt P30926+Q15825, I89V, form not given); format: cell-based; conditions: ACh on h[α6I56V/α3]β4
Chain of h[α6I56V/α3]β4 (Q15825 26-239 I89V, form open): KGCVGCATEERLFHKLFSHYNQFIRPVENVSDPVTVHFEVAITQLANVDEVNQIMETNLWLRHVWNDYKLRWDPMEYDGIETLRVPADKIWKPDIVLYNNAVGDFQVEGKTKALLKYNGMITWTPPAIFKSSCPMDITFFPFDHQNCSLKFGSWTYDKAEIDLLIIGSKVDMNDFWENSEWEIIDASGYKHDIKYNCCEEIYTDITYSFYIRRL
Chain of h[α6I56V/α3]β4 (P30926 22-498, form open): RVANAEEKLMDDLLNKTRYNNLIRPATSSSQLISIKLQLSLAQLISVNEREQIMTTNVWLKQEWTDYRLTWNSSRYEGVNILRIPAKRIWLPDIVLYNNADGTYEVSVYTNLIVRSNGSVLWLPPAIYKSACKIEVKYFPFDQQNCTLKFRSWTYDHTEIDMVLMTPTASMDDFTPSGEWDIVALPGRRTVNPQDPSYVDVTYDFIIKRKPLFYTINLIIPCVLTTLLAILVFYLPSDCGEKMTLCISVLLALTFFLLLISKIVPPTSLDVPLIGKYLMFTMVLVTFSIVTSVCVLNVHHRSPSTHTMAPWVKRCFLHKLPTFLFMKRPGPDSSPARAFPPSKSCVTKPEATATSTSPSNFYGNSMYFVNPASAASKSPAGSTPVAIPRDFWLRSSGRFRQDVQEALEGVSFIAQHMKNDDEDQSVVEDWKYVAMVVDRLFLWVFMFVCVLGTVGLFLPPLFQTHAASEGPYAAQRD
Chain of h[α6I56V/α3]β4 (P32297 241-505 partner, form open): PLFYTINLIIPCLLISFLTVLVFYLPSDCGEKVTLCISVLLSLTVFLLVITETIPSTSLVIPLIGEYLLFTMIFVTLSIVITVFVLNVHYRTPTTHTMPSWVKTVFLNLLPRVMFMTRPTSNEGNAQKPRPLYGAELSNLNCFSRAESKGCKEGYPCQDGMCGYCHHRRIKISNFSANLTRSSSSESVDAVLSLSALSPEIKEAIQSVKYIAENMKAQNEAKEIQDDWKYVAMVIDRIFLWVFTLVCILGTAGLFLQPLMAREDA

T1 sequence (Q15825+P32297 fused with the stated changes): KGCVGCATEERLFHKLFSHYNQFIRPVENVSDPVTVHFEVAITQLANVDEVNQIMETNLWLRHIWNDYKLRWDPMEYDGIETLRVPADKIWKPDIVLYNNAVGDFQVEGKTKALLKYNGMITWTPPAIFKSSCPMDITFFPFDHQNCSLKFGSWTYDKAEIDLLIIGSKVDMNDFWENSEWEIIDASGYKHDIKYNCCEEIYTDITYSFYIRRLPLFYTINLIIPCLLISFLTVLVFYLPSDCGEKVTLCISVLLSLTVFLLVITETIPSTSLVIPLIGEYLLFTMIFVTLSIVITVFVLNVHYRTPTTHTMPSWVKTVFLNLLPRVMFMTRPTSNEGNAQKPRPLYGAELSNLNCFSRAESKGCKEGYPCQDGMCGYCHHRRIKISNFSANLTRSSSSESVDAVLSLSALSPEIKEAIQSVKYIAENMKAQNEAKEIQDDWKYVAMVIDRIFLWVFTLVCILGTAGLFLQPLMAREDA
T1 sequence (P30926 22-498): as the sequence (P30926 22-498, form open) above

SMILES: CC(=O)OCC[N+](C)(C)C [ACh, acetylcholine chloride]
- Hill Slope (hα6/α3β4): 1.4 (1.2–1.7)
- Hill Slope (h[α6I56V/α3]β4): 1.3 (1.1–1.5)
